The structures appear in SMILES notation.

From patent US20220195379A1, “METHOD OF TESTTING INHIBITORY EFFECT OF CARBON DIOXIDE ON SPOILAGE CAUSING ABILITY OF SHEWANELLA PUTREFACIENS” (Shanghai Ocean University, priority 2022, published 2022) come the findings set out here.

The test system of the experiment is Shewanella putrefaciens. The experiment is described as follows: Inhibitory effect of CO2 on growth and spoilage causing ability, inoculated fillets in modified atmosphere packaging. To be noted: stored in the presence of CO2, versus control group. Here is the method:
Pre-frozen Shewanella putrefaciens (stored at −80° C. or less) was thawed at 30±2° C., inoculated to 5-10 mL of TSB, and cultured under shaking for 12 h to obtain a primary culture solution.
The primary culture solution was inoculated into another TSB liquid medium at an inoculation amount of 1% by weight, which was cultured under shaking for 6 h to obtain a bacterial suspension with a concentration of 10^7 CFU/mL.
A large yellow croaker with a weight of 1000±50 g was processed, and cut into a plurality of 100-g slices, which were washed with 0-4° C. water, and dried to prepare a plurality of samples. The large yellow croaker was oxygenated in a foam box during the transportation, and processed by bloodletting, evisceration, and head removal.
The samples were immersed into a 75% ethanol solution for 30 s, washed with sterile distilled water 3 times, and subjected to ultraviolet sterilization for 20 min to obtain a plurality of sterilized samples, where a mass ratio of the ethanol solution to the samples was 3:1. The bacterial suspension was diluted to a concentration of 10^4 CFU/mL, and inoculated to the sterilized samples to obtain a plurality inoculated samples, where the diluted bacterial suspension was 10% by weight of each sterilized sample such that a bacterial concentration of each sterilized sample was lower than or equal to 10^5 CFU/mL. […]

Take `O=C=O` [CO2, carbon dioxide]: the “Growth and reproduction rate of the Shewanella putrefaciens” value was “significantly lower than that of the control group”.
